According to patent publication US12449422B2, “Method and composition matter for immunoproteasome-mediated delivery into living cells” (Purdue Research Foundation, priority 2019, dated 2025):
Blank lines part the entries; values can stand above or below the compound they belong to. No end group written: not given here.

Columns and labels:
A549 cells [1] = test: Cell Titer-Glo luminescent cell viability assay; type: cell-based
Procedure: A549 cells were treated with 5 ng/mL IFN-γ for 4 days then split into a black 96-well plate at a density of 5,000 cells/well along with non-IFN-γ treated cells. Cells were allowed to adhere overnight before performing assays. The media was removed and fresh media (50 μL) was added to each well. Each probe was added to each well at the corresponding concentration and the plate was returned to the incubator for the given amount of time. To remove any signal due to FBS in the media, the media was removed and cells were washed with PBS (3 times). After the final wash, PBS (50 μL) was added to each well. The plate was incubated at 37° C. in the plate reader, monitoring the change in fluorescence (Ex—485(20) nm, Em—535(20) nm for Rh-probes; gain=90). Samples were run in five replicates and any outliers (outside the range of average±standard deviation) were removed (no more than two replicates per sample were removed). […] To ensure that observed differences in fluorescence were not due to a difference in total cells or cell viability, a Cell Titer-Glo® luminescent cell viability assay (Promega) was performed in a separate white 96 well plate using the same conditions per the manufacturer's protocol. Luminescence was recorded using a BioTek Synergy™ Neo2 Multimode Microplate Reader. […]

iCP [2] = target: T1, iCP (Homo sapiens, UniProt P28062); test: Hit validation: LC/MS of OVA released from hit peptides by iCP; type: biochemical; conditions: for iCP % Change OVA: 5.2 μM peptide, 4 nM iCP, 6 hours, 37° C., vs EIC of control peptide Ala-Ala-Ala-Phe-OVA; for Selectivity: iCP over sCP
T1 construct: purchased Boston Biochem
Procedure: (§1) Validation assays were performed under similar conditions as the screen. Briefly, 5 μM of each hit peptide was incubated at 37° C. with 4 nM iCP for six hours in triplicate, then analyzed by LC/MS. All peptides were also analyzed under identical conditions using 4 nM sCP. This was done to confirm that our library design yielded the desired selectivity and not simply sequences that could be efficiently cleaved by either isoform. The mass of OVA was extracted and integrated for each sample, averaging the triplicates. […] Of the nine total hits, six validated successfully. Additionally, all validated hits had at least 1.4-fold selectivity for the iCP (FIG. 4C and FIG. 5). We chose to move forward with the sequence Ala-Thr-Met-Trp, as this not only had highly efficient cleavage by the iCP but also was close to 5-fold selective for the iCP compared to the sCP.
(§2) For validation, purified hit sequences (46 μL final concentration 5.2 μM) in 50 mM tris buffer, pH 7.6 were added to nine wells of a 96 well plate. To each triplicate, 4 μL of tris buffer, 50 nM iCP (final concentration 4 nM) or 50 nM sCP (final concentration 4 nM) was added. This was sealed and allowed to incubate for 6 hours at 37° C. HPLC-grade acetonitrile (50 μL) was added to each sample and the samples were then dried under vacuum. Dried samples were resuspended in 100 μL 50/50 water/acetonitrile with 0.1% formic acid. Each sample was then analyzed by LC/MS with an injection volume of 90 μL. The mass of OVA (887.0-887.9) was extracted. The peak at the same time point as the standard was then integrated and averaged over the triplicate for each sample. Percent change was considered for each triplicate in comparison to the EIC of the control peptide sequence (Ala-Ala-Ala-Phe-OVA). Raw data for integrated OVA peaks can be seen in FIG. 5. Each bar represents an average of triplicates with error bars given as the standard deviation.

sCP [3] = target: T2, sCP (Homo sapiens, UniProt P28074); test: Hit validation: LC/MS of OVA released from hit peptides by sCP; type: biochemical; conditions: 5.2 μM peptide, 4 nM sCP, 6 hours, 37° C.; vs EIC of control peptide Ala-Ala-Ala-Phe-OVA
T2 construct: purchased Boston Biochem
Procedure: as §1, §2

iCP [4] = target: T1, iCP; test: Biochemical assay with fluorogenic substrate probes and purified proteasome; conditions: 31 μM probe, 9 nM proteasome, 37° C.
Procedure: Initially, we treated various concentrations of TBZ1 from 0-250 μM with both the iCP and sCP (FIG. 11). All concentrations were incubated at 37° C. with 9 nM of the respective proteasomes and the increase in fluorescence was monitored for 60 min at 1 min intervals. We found 31 μM of TBZ1 to give a favorable profile, maintaining about a 3:1 selectivity compared to the sCP (FIG. 6).
The remaining probes were studied at 31 μM and monitored for an increase in fluorescence over 30 minutes. […] Finally, we also sought to compare TBZ1 to the commercially available, iCP-selective substrate probe Ac-ANW-AMC.
Each probe was dissolved in DMSO at a proper stock concentration such that the final concentration of DMSO in the sample is 2%. For TBZ1, a two-fold serial dilution was performed to determine the optimal concentration for biochemical assays. Each stock was then diluted in 50 mM tris buffer, pH 7.6 (1 μL stock per 40 μL buffer) and added to a black 96 well plate in triplicate (41 μL per well). Stocks ([…] in 50 mM tris buffer, pH 7.6) of either iCP or sCP was added to each well (9 μL/well, final concentration=9 nM). The change in fluorescence (Ex—485(20) nm, Em—535(20) nm; gain=50) was monitored over time on a Tecan Infinite 200® Pro Microplate Reader. Data was plotted as the average of triplicate samples using GraphPad Prism 7 and can be found in FIG. 11. […]

A549 cells [5] = test: Cellular assay with TBZ1, plate-reader fluorescence; type: cell-based; conditions: 31 μM TBZ1, 15 and 60 min
Procedure: To determine the selectivity of TBZ1 in cells, both untreated cells and cells treated with IFN-γ were plated at the same cell density into a 96-well plate for fluorescence readouts. After allowing sufficient time for the cells to adhere to the wells, TBZ1 was added and allowed to incubate for various time points. Following the initial incubation, wells were washed with PBS to remove any probe that had not been taken up by the cells and the plate was incubated for an additional hour before the fluorescence was recorded. […] We initially intended to use TBZ4 as a way to confirm that the addition of a peptoid improved cell penetration and protease stability of TBZ1. […]
A549 cells were treated with 5 ng/mL IFN-γ for 4 days then split into a black 96-well plate at a density of 5,000 cells/well along with non-IFN-γ treated cells. […] The plate was incubated at 37° C. in the plate reader, monitoring the change in fluorescence (Ex—485(20) nm, Em—535(20) nm for Rh-probes; gain=90). […] To ensure that observed differences in fluorescence were not due to a difference in total cells or cell viability, a Cell Titer-Glo® luminescent cell viability assay (Promega) was performed in a separate white 96 well plate using the same conditions per the manufacturer's protocol. Luminescence was recorded using a BioTek Synergy™ Neo2 Multimode Microplate Reader. […]

sCP [6] = target: T2, sCP; test: LC/MS analysis of TBZ1 cleavage with purified sCP; type: biochemical; conditions: 31 μM, 9 nM sCP, 55 min, 37° C.
From the text: (§3) We first analyzed TBZ1 in the same conditions as the biochemical assay without any iCP to confirm there was not any non-specific degradation occurring during the LC/MS run. In this, we only observed the two isomers of our probe. After treatment with the iCP, we observed two new peaks in the TIC spectrum. These corresponded to the expected Rh-peptoid and peptide fragments. The full mass of TBZ1 was extracted from each triplicate and compared between iCP and sCP samples. […] When this analysis was performed using sCP, we observed that 77% remained uncleaved.
(§4) In the same way as the biochemical assays (FIG. 11), TBZ1 (31 μM) was incubated at 37° C. with or without purified proteasome (9 nM) in 50 mM tris HCl buffer (pH 7.6) for 55 min in triplicate. After incubation, samples were quenched by adding 50 μL of HPLC-grade acetonitrile. The samples were dried under vacuum then resuspended in 50/50 water/acetonitrile with 0.1% formic acid (100 μL). Samples (50 μL) were analyzed by LC/MS (Agilent 1260 Infinity II with a Zorbax Eclipse Plus C18 column, 2.1×50 mm, 1.8-micron attached to an Agilent 6129 quadrupole mass spectrometer). […] Percent TBZ1 remaining in treated samples was determined by comparing the averages of untreated vs. treated samples.

IFN-γ treated A549 cells = test: Confocal imaging with TBZ1; type: cell-based; conditions: 31 μM TBZ1, one hour, vs DMSO
Procedure: As an additional way to visualize the cells treated with TBZ1, we analyzed IFN-γ cells using confocal microscopy. Following a similar procedure as the plate reader assay, IFN-γ treated cells were plated on glass coverslip chambers coated with poly-D-lysine and were dosed with TBZ1 (31 μM) or DMSO for one hour. After washing, the cells were returned to the incubator for 30 min before staining with Super Bright 436 HLA-A, B, C antibody to serve as a membrane marker.
After four days of treatment with IFN-γ, A549 cells were plated into 8-well chambered coverglass plates that had been coated with poly-d-lysine (20,000 cells/well). The cells were allowed to adhere overnight then washed once with PBS. Fresh media including 31 μM TBZ1 was added to wells in triplicate and incubated for one hour. After incubation, the cells were washed with PBS (3 times) then kept in 200 μL modified Krebs-Ringer buffer (134 mM NaCl, 3.5 mM KCl, 1.2 mM K2HPO4·3H2O, 0.5 mM MgSO4·7H2O, 1.5 mM CaCl2·2H2O, 5 mM NaHCO3 and 10 mM HEPES, pH 7.4). The samples were returned to the incubator. After 30 min, Super Bright 436 HLA-ABC monoclonal antibody (ThermoFisher #62-9983-42) was added to each well (1 μL/well, 0.1 μg) and the samples were returned to the incubator for an additional 30 min. The samples were again washed with PBS and suspended in modified Krebs-Ringer buffer (200 μL) for imaging. […]

A549 cells [7] = test: Flow cytometry with TBZ1; type: cell-based; conditions: 31 μM TBZ1, preliminary, single replicate
Procedure: A549 cells untreated and treated with IFN-γ were each plated into 4 wells of a 12-well plate at 300,000 cells/well. The cells were allowed to adhere overnight. To each well was added fresh media (500 μL) with either DMSO alone or TBZ1 (final concentration=31 μM). The plate was returned to the incubator for an hour. The cells were then washed with PBS (3 times). The plate was incubated for an additional hour in PBS. The cells were removed from each well using trypsin-EDTA solution. After centrifuging and removing the media, the cells were resuspended in PBS. Samples were mixed at a ratio of 1:1 -IFN-γ to +IFN-γ cells then all three samples were analyzed by flow cytometry using a Guava EasyCyte instrument with Guava CytoSoft™ software. Samples were excited with a 488 nm laser and fluorescence intensity was recorded from the 525 nm filter cube. Image analysis was performed using FlowJo v10. Data shown in FIG. 17 is of a single replicate.

iCP [8] = target: T1, iCP; test: LC/MS analysis of TBZ1 cleavage with purified iCP; type: biochemical; conditions: 31 μM, 9 nM iCP, 55 min, 37° C.
From the text: as §3, §4

Compound: COc1ccc(C[C@H](NC(=O)[C@H](C)NC(=O)CN2CCOCC2)C(=O)N[C@@H](Cc2ccccc2)C(=O)C2(C)CO2)cc1 (stereo in doubt) [ONX-0914]
cell death with ONX-0914 (Cell Titer-Glo) (A549 cells [1]; ONX-0914 20 μM, IFN-γ treated A549 cells): not due to cell death

Compound: His-Gly-Gly
iCP % Change OVA (iCP [2]): −82% | Selectivity (iCP [2]; OVA released): 0.8 | sCP % Change OVA (sCP [3]): −78%

Compound: Ala-Ala-Ala-Phe-OVA [reference compound]
iCP % Change OVA (iCP [2]): 0% | Selectivity (iCP [2]; OVA released): 1.3 | sCP % Change OVA (sCP [3]): −25%

Compound: COCCCN(CC(=O)N(CCCN(C)C)CC(N)=O)C(=O)CN(CCCN(C)C)C(=O)CNC(=O)CCC(=O)Nc1ccc2c(c1)Oc1cc(NC(=O)[C@H](Cc3c[nH]c4ccccc34)NC(=O)[C@H](CCSC)NC(=O)[C@@H](NC(=O)[C@H](C)N)C(C)O)ccc1C21OC(=O)c2ccccc21 (stereo partly shown) [TBZ1]
fluorescence signal in IFN-γ treated vs regular A549 cells (A549 cells [5]): significantly increased signal for IFN-γ treated cells | TBZ1 remaining uncleaved with sCP (sCP [6]): 77% | cell viability (Cell Titer-Glo) after TBZ1 treatment (A549 cells [1]; untreated vs IFN-γ treated A549 cells): no significant difference | intracellular staining by confocal microscopy (IFN-γ treated A549 cells): increased staining due to probe cleavage within the cell | separation of cell populations by flow cytometry (A549 cells [7]): cell populations can be separated based on increasing amounts of iCP-expressing cells | uncleaved TBZ1 remaining in iCP samples (iCP [8]): 31%

The next lines start with the values.

change in fluorescence / cleavage by purified proteasome (iCP [4]): not as efficiently cleaved at TBZ1
Compound: TBZ4 (ATMW; also: rhodamine probe)

change in fluorescence / cleavage by purified proteasome (iCP [4]): very minimal fluorescence
Compound: TBZ2 (AEPY; also: ['rhodamine probe conjugate with peptoid group'])

iCP % Change OVA (iCP [2]): +1502% | selectivity for the iCP compared to the sCP (iCP [2]; hit validation, OVA released): ~5 fold | Selectivity (iCP [2]; OVA released): 4.8 | sCP % Change OVA (sCP [3]): +232%
Compound: Thr-Met-Trp: hit peptide: N-terminal Ala, P3-P2-P1 Thr-Met-Trp, attached to modified OVA (ATMW; also: attached to modified OVA)
